Read-outs that look alike come from different tables or passages of the source.

Assay [1] relates to heightened spontaneous hind limb movements. Put plainly: Spontaneous hind limb reflex activity in spinally transected rats (hyperreflexia). Particulars: for Integrated Activity, % of Control: ip, 30 minutes after dosing, spinally transected rats; for muscle spasticity: intraperitoneally. The format is in vivo. The procedure: The effectiveness of the compounds of this invention for treating muscle spasticity resulting from spinal trauma was tested in rats with heightened spontaneous hind limb movements. Four to six weeks before testing, anesthetized rats were spinally transected at the mid-thoracic level, resulting in this form of spontaneous limb activity. 4-Methyl-3-phenyl-5-methylsulfonyl-4H-1,2,4-triazole or clonidine were given intraperitoneally, and after 30-minutes reflex activity was measured in treated animals and untreated controls by a computerized apparatus designed to record, integrate and analyze this activity. […]

In assay [2] the test system is strychnine-induced seizures. The assay is described as follows: animal or person. The format is in vivo, mice. Particulars: for ED50: Mus musculus, read-out: ED₅₀. The procedure: Groups of 10 to 20 male mice are administered one or more doses of test compound in an appropriate vehicle or, for comparison, the vehicle alone. At a selected time thereafter, strychnine sulfate, prepared as a solution in distilled water, is administered intraperitoneally at a dose of 2.7 mg/kg. […] Absence of tonic extension for greater than 15 minutes after strychnine administration is considered significant protection.

As for `Cn1c(-c2ccccc2)nnc1S(C)(=O)=O` [4-Methyl-3-phenyl-5-methylsulfonyl-4H-1,2,4-triazole], the “Integrated Activity, % of Control” value is given as 137 ± 10 % of Control in assay [1] (5.0 mg/kg), 42.9 ± 12.7 % of Control in assay [1] (10.0 mg/kg), 75.3 ± 19.3 % of Control in assay [1] (20.0 mg/kg) and 51.3 ± 11.9 % of Control in assay [1] (40.0 mg/kg). Moreover, the muscle spasticity result in assay [1] (rats treated with more than 5 mg/kg) was “substantial reduction”. The ED50 was found to be 12.8 mg/kg in assay [2] (ip) and 7.3 mg/kg in assay [2] (po).

On to `CCSc1nnc(-c2ccccc2F)n1C` [4-methyl-3-(2-fluorophenyl)-5-ethylthio-4H-1,2,4-triazole], for which the figures for the ED50 in assay [2] (ip) and in assay [2] (po) were 18.6 mg/kg and 15.1 mg/kg, respectively.

`CC[S+]([O-])c1nnc(-c2ccccc2)n1C` (stereo not drawn) [4-methyl-3-phenyl-5-ethylsulfinyl-4H-1,2,4-triazole]: the ED50 was found to be 14.4 mg/kg in assay [2] (ip) and 8.1 mg/kg in assay [2] (po).

As to `CCS(=O)(=O)c1nnc(-c2ccccc2)n1C` [4-methyl-3-phenyl-5-ethylsulfonyl-4H-1,2,4-triazole], the figures for the ED50 in assay [2] (ip) and in assay [2] (po) were 19.3 mg/kg and 8.5 mg/kg, respectively.

With `Clc1cccc(Cl)c1N=C1NCCN1` [Clonidine, clonidine, reference compound], the “Integrated Activity, % of Control” value in assay [1] (3.1 µg/kg) is reported as 130.2 ± 43.9 % of Control; in assay [1] (12.5 µg/kg), 50.4 ± 9.8 % of Control; in assay [1] (50.0 µg/kg) it was 32.5 ± 9.5 % of Control. In addition, the muscle spasticity entry in assay [1] (rats treated with more than 3.1 µg/kg) is “substantial reduction”.

Consider `CN1C(=O)CN=C(c2ccccc2)c2cc(Cl)ccc21` [Diazepam, reference compound], for which the ED50 in assay [2] (ip) was determined as 1.2 mg/kg.

As for `Clc1ccc2nsnc2c1NC1=NCCN1` [Tizanidine, reference compound], the maximal protection in assay [2] (at 3.1 mg/kg i.p., doses of up to 50 mg/kg do not cause a greater effect, mice) is 60%.

As to `NCC(CC(=O)O)c1ccc(Cl)cc1` (stereo not drawn) [baclofen, reference compound], the “antagonism of strychnine-induced seizures” value in assay [2] (dosage range of from 12.5 to 200 mg/kg i.p., mice) is reported as “over 50%”. In assay [2] (no dose (12.5 to 200 mg/kg i.p.) causes 100% protection, mice), this compound yielded a protection of less than 100%.

These data come from patent EP0495226B1, “3-Aryl-5-alkylthio-4H-1,2,4-triazoles for treatment of hyperreflexia due to spinal trauma” (priority 1990, dated 1992).
